Assay results from article PMC7539012, “Hyperphosphorylated tau aggregation and cytotoxicity modulators screen identified prescription drugs linked to Alzheimer's disease and cognitive functions” (Scientific Reports, 2020).
Structures can show the parent of a compound that is named as a salt.

Tested on: T1, 1N4R p-tau
T1 construct: made in house; host or cells: E. coli (PIMAX system)
Assay: p-tau aggregation modulator screen of 1280-compound library (ThS fluorescence net change over 16 h);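 as to ThS net change: 30 µM compound with 6 µM p-tau over 16 h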
Assay type: biochemical
Parameters: key to PTAI>2SD: *: PTAI>2SD; key to PTAI>3SD: *: PTAI>3SD
Details: not given

Molecule	ThS net change
C[C@]12CC[C@H]3[C@@H](CCC4=CC(=O)CC[C@@H]43)[C@@H]1CC[C@@H]2O [Nandrolone]	479
COc1cccc2c1C(=O)c1c(O)c3c(c(O)c1C2=O)C[C@@](O)(C(C)=O)C[C@@H]3O[C@H]1C[C@H](N)[C@H](O)[C@H](C)O1 [Daunorubicin hydrochloride]	235
C=C[C@H]1CN2CC[C@H]1C[C@@H]2[C@@H](O)c1ccnc2ccc(OC)cc12.Cl.O [Quinidine hydrochloride monohydrate]	282
C[C@]12CCC(=O)C(O)=C1CC[C@@H]1[C@@H]2CC[C@]2(C)C(=O)CC[C@@H]12 [Formestane]	413
CC(C)c1cccc(C(C)C)c1O [Propofol]	400

Same assay, conditions: 1280-compound library screen; ThS fluorescence net change over 16 h

Molecule	ThS net change
C[C@]12CCC(=O)C=C1CC[C@@H]1[C@@H]2[C@@H](O)C[C@@]2(C)[C@H]1CC[C@]2(O)C(=O)CO [Hydrocortisone base]	398
COc1ccc(C2CNC(=O)C2)cc1OC1CCCC1 (stereo not drawn) [Rolipram]	406
CC(C)C[C@H](NC(=O)[C@@H](O)[C@H](N)Cc1ccccc1)C(=O)O [Ubenimex]	390
CCCN[C@H]1CCc2nc(N)sc2C1 [Pramipexole dihydrochloride]	385
CC(=O)OCC(=O)[C@@]1(OC(C)=O)[C@@H](C)C[C@H]2[C@@H]3C[C@H](F)C4=CC(=O)C=C[C@]4(C)[C@@]3(F)[C@@H](O)C[C@@]21C [Diflorasone Diacetate]	407
CC(O)(CS(=O)(=O)c1ccc(F)cc1)C(=O)Nc1ccc(C#N)c(C(F)(F)F)c1 (stereo not drawn) [Bicalutamide]	388
C#CCN(C)CCCOc1ccc(Cl)cc1Cl [Clorgyline hydrochloride]	400
CCCOc1ccc2nc(NC(=O)OC)[nH]c2c1 [Oxibendazol]	391
CC[N+](C)(C)c1cccc(O)c1 [Edrophonium chloride]	389
CN1C2CCCC1CC(NC(=O)c1nn(C)c3ccccc13)C2 (stereo not drawn) [Granisetron]	399
O=C(NCC(O)CO)c1c(I)c(C(=O)NCC(O)CO)c(I)c(N(CCO)C(=O)CO)c1I (stereo not drawn) [Ioversol]	409
Nc1nc(=S)c2ncn([C@@H]3O[C@H](CO)[C@@H](O)[C@H]3O)c2[nH]1 [Thioguanosine]	385
C=C1C[C@H]2[C@@H]3C=C(C)C4=CC(=O)CC[C@]4(C)[C@H]3CC[C@]2(C)[C@@]1(OC(C)=O)C(C)=O [Melengestrol acetate]	404
Cn1cc[nH]c1=S [Methimazole]	393
O=C(O)COC(=O)Cc1ccccc1Nc1c(Cl)cccc1Cl [Aceclofenac]	390
NS(=O)(=O)c1cc(Cl)c(Cl)c(S(N)(=O)=O)c1 [Dichlorphenamide]	404
CC(C)(Oc1ccc(CCNC(=O)c2ccc(Cl)cc2)cc1)C(=O)O [Bezafibrate]	389
CC(C)NCC(O)COc1ccc(COCCOC(C)C)cc1 (stereo not drawn) [Bisoprolol fumarate]	409
CCCCNc1ccc(C(=O)OCCN(C)C)cc1.Cl [Tetraca?ne hydrochloride]	401
COc1c(N2C[C@@H]3CCCN[C@@H]3C2)c(F)cc2c(=O)c(C(=O)O)cn(C3CC3)c12 [Moxifloxacin]	413

Same assay, conditions: 1280-compound library screen; […]

Molecule	ThS net change
CN(C)C(=O)Oc1ccc[n+](C)c1.[I-] [Pyridostigmine iodide]	381
CC(=O)O[C@H]1C[C@@H]2CC[C@@H]3[C@H](CC[C@@]4(C)[C@H]3C[C@H]([N+]3(C)CCCCC3)[C@@H]4OC(C)=O)[C@@]2(C)C[C@@H]1N1CCCCC1 [Vecuronium bromide]	382
CNCC(O)c1ccc(O)cc1 (racemic) [(+,-)-Synephrine]	410
C[C@]12CC[C@H]3C(=CCc4cc(O)ccc43)[C@@H]1CCC2=O [Equilin]	389

Same assay, conditions: flag: p-tau aggregation inhibitor, ThS net change more than 2 SD from mean

Molecule	PTAI>2SD
CO[C@H]1/C=C/O[C@@]2(C)Oc3c(C)c(O)c4c(O)c(c(/C=N/N5CCN(C)CC5)c(O)c4c3C2=O)NC(=O)/C(C)=C\C=C\[C@H](C)[C@H](O)[C@@H](C)[C@@H](O)[C@@H](C)[C@H](OC(C)=O)[C@@H]1C [Rifampicin]	*

Same assay, conditions: flag: p-tau aggregation inhibitor, ThS net change more than 3 SD from mean

Molecule	PTAI>3SD
CO[C@H]1/C=C/O[C@@]2(C)Oc3c(C)c(O)c4c(O)c(c(/C=N/N5CCN(C6CCCC6)CC5)c(O)c4c3C2=O)NC(=O)/C(C)=C\C=C\[C@H](C)[C@H](O)[C@@H](C)[C@@H](O)[C@@H](C)[C@H](OC(C)=O)[C@@H]1C [Rifapentine]	*

Same assay, conditions: library screen, ThS fluorescence net change over 16 h with p-tau

Molecule	ThS net change
O=C1C(O)=C([C@H]2CC[C@H](c3ccc(Cl)cc3)CC2)C(=O)c2ccccc21 [Atovaquone]	266
Clc1ccc(C(Cn2ccnc2)OCc2ccsc2Cl)c(Cl)c1 (stereo not drawn) [Tioconazole]	309
CCN(CCCCOC(=O)c1ccc(OC)c(OC)c1)C(C)Cc1ccc(OC)cc1 (stereo not drawn) [Mebeverine hydrochloride]	295
CO[C@H]1/C=C/O[C@@]2(C)Oc3c(C)c(O)c4c(O)c(c(/C=N/N5CCN(C)CC5)c(O)c4c3C2=O)NC(=O)/C(C)=C\C=C\[C@H](C)[C@H](O)[C@@H](C)[C@@H](O)[C@@H](C)[C@H](OC(C)=O)[C@@H]1C [Rifampicin]	158
CN1CCCN=C1/C=C/c1cccc(O)c1.CN1CCCN=C1/C=C/c1cccc(O)c1.O=C(O)c1cc2ccccc2c(Cc2c(O)c(C(=O)O)cc3ccccc23)c1O [Oxantel pamoate]	208
CO[C@H]1/C=C/O[C@@]2(C)Oc3c(C)c(O)c4c(O)c(c(/C=N/N5CCN(C6CCCC6)CC5)c(O)c4c3C2=O)NC(=O)/C(C)=C\C=C\[C@H](C)[C@H](O)[C@@H](C)[C@@H](O)[C@@H](C)[C@H](OC(C)=O)[C@@H]1C [Rifapentine]	86
CCOC(=O)c1ccc(OC(=O)CCCCCNC(=N)N)cc1.CS(=O)(=O)O [Gabexate mesilate]	305
COc1cc(C(=O)OCCCN2CCCN(CCCOC(=O)c3cc(OC)c(OC)c(OC)c3)CC2)cc(OC)c1OC.Cl.Cl [Dilazep dihydrochloride]	286
CC(=O)c1ccc2c(c1)N(CCCN1CCC(CCO)CC1)c1ccccc1S2 [Piperacetazine]	243
CC1CCc2cc(F)cc3c(=O)c(C(=O)O)cn1c23 (stereo not drawn) [Flumequine]	303

Same assay, conditions: p-tau aggregation modulator screen of 1280-compound library; ThS fluorescence net change

Molecule	ThS net change
O=C(O)c1cccnc1Nc1cccc(C(F)(F)F)c1 [Niflumic acid]	340
Nc1ccc(O)c(C(=O)O)c1 [Mesalamine]	363
CNCCCN1c2ccccc2CCc2ccccc21 [Desipramine hydrochloride]	365
COc1ccc2cc(CCC(C)=O)ccc2c1 [Nabumetone]	357
c1ccc(CC2=NCCN2)cc1 [Tolazoline hydrochloride]	360
CN1CCN(C2=Nc3cc(Cl)ccc3Nc3ccccc32)CC1 [Clozapine]	368
Cc1cnc(C(=O)NCCc2ccc(S(=O)(=O)NC(=O)NC3CCCCC3)cc2)cn1 [Glipizide]	371
CN(C)CCOC(c1ccccc1)c1ccccc1 [Diphenhydramine hydrochloride]	335
O=C(O)c1cc(=O)c2c(OCC(O)COc3cccc4oc(C(=O)O)cc(=O)c34)cccc2o1 [Cromolyn disodium salt]	360
CN1CCC(=C2c3ccccc3CC(=O)c3sccc32)CC1 [Ketotifen fumarate]	366
CC(CN(C)C)CN1c2ccccc2Sc2ccccc21.CC(CN(C)C)CN1c2ccccc2Sc2ccccc21.O=C(O)C(O)C(O)C(=O)O (stereo not drawn) [Trimeprazine tartrate]	354
CCN(CC)C(=S)SSC(=S)N(CC)CC [Disulfiram]	339
CCN(CCCc1ccccc1)CCCc1ccccc1.O=C(O)CC(O)(CC(=O)O)C(=O)O [Alverine citrate salt]	374
Cc1cc2c(cc1S(N)(=O)=O)S(=O)(=O)CCC2 [Meticrane]	368
c1ccc(CNc2ncnc3nc[nH]c23)cc1 [Aminopurine, 6-benzyl]	348
Cl.Cl.c1ccc2c(c1)CCCc1cc(NCCN3CCOCC3)nnc1-2	345
CC[P](CC)(CC)=[Au][S][C@@H]1O[C@H](COC(C)=O)[C@@H](OC(C)=O)[C@H](OC(C)=O)[C@H]1OC(C)=O [Auranofin]	365
CC(=O)Oc1ccccc1C(=O)Oc1ccccc1C(=O)O [Acetylsalicylsalicylic acid]	363
Cc1oncc1C(=O)Nc1ccc(C(F)(F)F)cc1 [Leflunomide]	344

Same assay, conditions: p-tau aggregation modulator screen of 1280-compound library; […]

Molecule	ThS net change
Br.CN1[C@@H]2CC[C@H]1C[C@@H](OC(=O)C(O)c1ccccc1)C2 (stereo partly drawn) [Homatropine hydrobromide (R,S)]	332

Same assay, conditions: p-tau aggregation modulator screen of the compound library, ThS fluorescence net change

Molecule	ThS net change
CCC(=O)O[C@]1(C(=O)SCF)[C@H](C)C[C@H]2[C@@H]3C[C@H](F)C4=CC(=O)C=C[C@]4(C)[C@@]3(F)[C@@H](O)C[C@@]21C [Fluticasone propionate]	503
CC(=O)OCC1=C(C(=O)O)N2C(=O)[C@@H](NC(=O)Cc3cccs3)[C@H]2SC1 [Cephalothin sodium salt]	446
Cc1c(OCC(F)(F)F)ccnc1C[S+]([O-])c1nc2ccccc2[nH]1 (stereo not drawn) [Lansoprazole]	510
c1ccc(-c2ccc(C(c3ccccc3)n3ccnc3)cc2)cc1 (stereo not drawn) [Bifonazole]	432
COC(=O)[C@H](c1ccccc1Cl)N1CCc2sccc2C1 [Clopidogrel]	499
Olmesartan	482
OCC(O)CN1CCN(c2ccccc2)CC1 (racemic) [Dropropizine (R,S)]	418
CC1NC(=O)NC1=O (stereo not drawn) [Methylhydantoin-5-(L)]	449
CC(C)(CO)[C@@H](O)C(=O)NCCCO [Panthenol (D)]	429
CS(=O)(=O)O.Cc1ccc2c(c1)c1c3n2CCNC3CCC1 (stereo not drawn) [Pirlindole mesylate]	461
CC(=O)N[C@@H](CC(C)C)C(=O)O [N-Acetyl-L-leucine]	417
CC1(C)O[C@@H]2C[C@H]3[C@@H]4C[C@H](F)C5=CC(=O)C=C[C@]5(C)[C@@]4(F)[C@@H](O)C[C@]3(C)[C@]2(C(=O)CO)O1 [Fluocinolone acetonide]	460
COc1ccccc1Oc1c(NS(=O)(=O)c2ccc(C(C)(C)C)cc2)nc(-c2ncccn2)nc1OCCO [Bosentan]	453
Clc1ccc2c(c1)C(N1CCNCC1)=Nc1ccccc1O2 [Amoxapine]	416
